{"source": "patent US20170067894A1", "about": "(priority 2014, published 2017)", "key": {"[1]": {"system": "LuxR-regulated luminescence of Vibrio fischeri MJ-1", "assay_type": "cell-based"}, "LuxR of Vibrio fischeri": {"target": "LuxR of Vibrio fischeri (Aliivibrio fischeri, UniProt P12746, DEL21-21/INS42T/N22A/N23Y)", "sequence (P12746 with tags, fused parts or gaps DEL21-21/INS42T/N22A/N23Y)": "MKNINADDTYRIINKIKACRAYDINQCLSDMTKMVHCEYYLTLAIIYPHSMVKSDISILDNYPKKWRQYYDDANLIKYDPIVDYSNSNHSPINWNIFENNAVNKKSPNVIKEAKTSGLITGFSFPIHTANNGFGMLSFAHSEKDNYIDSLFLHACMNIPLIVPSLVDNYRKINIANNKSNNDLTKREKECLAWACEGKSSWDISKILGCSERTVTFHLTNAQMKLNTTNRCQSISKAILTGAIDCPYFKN", "assay_type": "cell-based", "settings": "for induction of luminescence (LuxR activation) compared to 2-AA: 50 μM, 20 h of incubation, FIG. 10"}}, "note": "Where two headings read alike, the source gives them in different places.", "data": [{"smiles": "CCCC(=O)CC(=O)N[C@H]1CCOC1=O", "note": "[3-oxo-C6-HSL]", "values": [{"measurement": "luminescence of V. fischeri MJ-1", "setting": "[1]; 10 nM, FIG. 6", "result": "significant increase"}, {"measurement": "luminescence of V. fischeri MJ-1", "setting": "[1]; two repeats of the experiment (data not shown)", "result": "no luminescence was measured"}, {"measurement": "affinity towards LuxR relative to 2-AA", "setting": "LuxR of Vibrio fischeri; as apparent from FIGS. 4 through 9", "result": "approximately three orders of magnitude higher"}]}, {"smiles": "Nc1ccccc1C=O", "note": "[2-aminobenzaldehyde]", "values": [{"measurement": "induction of luminescence (LuxR activation) compared to 2-AA", "setting": "LuxR of Vibrio fischeri", "result": "completely abolished the induction of luminescence"}]}, {"smiles": "CC(=O)c1ccccc1", "note": "[acetophenone]", "values": [{"measurement": "induction of luminescence (LuxR activation) compared to 2-AA", "setting": "LuxR of Vibrio fischeri", "result": "completely abolished the induction of luminescence"}]}, {"smiles": "CC(=O)c1cccc(N)c1", "note": "[3-aminoacetophenone]", "values": [{"measurement": "induction of luminescence (LuxR activation) compared to 2-AA", "setting": "LuxR of Vibrio fischeri", "result": "completely abolished the induction of luminescence"}]}, {"smiles": "CC(=O)c1ccc(N)cc1", "note": "[4-aminoacetophenone]", "values": [{"measurement": "induction of luminescence (LuxR activation) compared to 2-AA", "setting": "LuxR of Vibrio fischeri", "result": "completely abolished the induction of luminescence"}]}, {"smiles": "O=C(C[N+](=O)[O-])c1ccccc1", "note": "[2-nitroacetophenone]", "values": [{"measurement": "induction of luminescence (LuxR activation) compared to 2-AA", "setting": "LuxR of Vibrio fischeri", "result": "could also activate LuxR, but to a lesser extent than 2-AA"}, {"measurement": "dose dependency of LuxR activation", "setting": "LuxR of Vibrio fischeri; 1-50 μM", "result": "no dose dependency"}, {"measurement": "synergistic effects in the presence of AHL", "setting": "LuxR of Vibrio fischeri; 1-50 μM", "result": "no dose dependency or synergistic effects in the presence of AHL were observed"}]}, {"smiles": "Nc1ccccc1C(=O)O", "note": "[anthranilic acid]", "values": [{"measurement": "induction of luminescence (LuxR activation) compared to 2-AA", "setting": "LuxR of Vibrio fischeri", "result": "completely abolished the induction of luminescence"}]}, {"smiles": "COC(=O)c1ccccc1N", "note": "[methyl anthranilate]", "values": [{"measurement": "induction of luminescence (LuxR activation) compared to 2-AA", "setting": "LuxR of Vibrio fischeri", "result": "completely abolished the induction of luminescence"}]}]}
